Experimental data: article PMC7037546, “High Cell Selectivity and Bactericidal Mechanism of Symmetric Peptides Centered on D-Pro–Gly Pairs” (International Journal of Molecular Sciences, 2020)
In brackets after ≈: the same amount, converted by molar mass. Non-standard residues stand in square brackets, D forms with d. Residues, ends and D or L forms follow the SMILES beside them. No end group written: not given here.

Experiments:
RAW 264.7 cells = assay: Cytotoxicity, CCK-8 assay; format: cell-based, murine; conditions: 64 μM peptide, 16 h, CCK-8, OD 450 nm
Method: (§1) The cytotoxicity was detected according to a CCK-8 assay as described previously. Briefly, RAW 264.7 and HEK293T cells were placed into 96-well plates at a density of 1.0–2.0 × 10^5, and then cultured for 16 h under conditions of 5% CO2. Then, two-fold diluted peptides in DMEM were added to the plates. After 16 h of culturing, CCK-8 (10%, v/v) was put into each well containing cell culture, and mixtures were cultured for 2 h. The cytotoxicity assay was examined by measuring the OD of the mixtures at 450 nm (Microplate reader, TECAN GENios F129004, Tecan, Salzburg, Austria). The assays were performed three times.

HEK293T cells = assay: Cytotoxicity, CCK-8 assay; format: cell-based, human; conditions: 64 μM peptide, 16 h, CCK-8, OD 450 nm
Method: as §1

[1] = test system: Escherichia coli ATCC25922; assay: microbe, parasite or virus in culture; conditions: ATCC25922, 16 h
Method: (§2) The antimicrobial activity of the designed peptides was examined using the micro-dilution method described previously. The bacteria were cultured for 16 h in MHB at 37 °C, and the microbial suspension was diluted to a final concentration of 10^5 colony-forming units (CFU)/mL. Then, 50 µL of MHB containing different concentrations peptides (0.25–256 µM) was mixed with 50 µL of bacterial solution, and the mixture was added to a 96-well plate. […] The assays were performed three times.

[2] = test system: Klebsiella pneumonia CMCC46117; conditions: CMCC46117, 16 h
Method: as §2

Gram-negative bacteria = conditions: 16 h
Method: as §2

S. aureus ATCC29213 = conditions: ATCC29213, 16 h
Method: as §2

E. coli K88 = conditions: micro-dilution in MHB, 10^5 CFU/mL, 16 h, OD 492 nm, performed three times
Method: as §2

[3] = test system: Salmonella Pullorum NCTC5776; conditions: NCTC5776, 16 h
Method: as §2

[4] = test system: Pseudomonas aeruginosa ATCC27853; conditions: ATCC27853, 16 h
Method: as §2

[5] = test system: methicillin-resistant S. aureus ATCC43300; conditions: ATCC43300, 16 h
Method: as §2

[6] = test system: Staphylococcus aureus ATCC25923; conditions: ATCC25923, 16 h
Method: as §2

[7] = test system: Enterococcus faecalis ATCC29212; conditions: ATCC29212, 16 h
Method: as §2

Gram-positive bacteria = assay: Geometric mean of MICs and therapeutic index, Gram (+); format: cell-based; conditions: geometric mean over the Gram-positive strains of Table 2; 256 μM used when no activity at 128 μM
Method: as §2

E. coli ATCC25922 = format: cell-based, Escherichia coli; conditions: for MIC after pH treatment, pH 4 / MIC after pH treatment, pH 6 / MIC after pH treatment, pH 8 / MIC after pH treatment, pH 10: ATCC25922, 1 h; for MIC after temperature treatment, 0 °C / MIC after temperature treatment, 37 °C / MIC after temperature treatment, 100 °C / MIC in the presence of FeCl3 / MIC in the presence of KCl / MIC in the presence of MgCl2 / MIC in the presence of NH4Cl / MIC in the presence of NaCl / MIC in the presence of ZnCl2 / MIC, Control / MIC, Control (pH 7): ATCC25922, 16 h
Method: as §2
The salt, temperature, and pH sensitivities of designed peptides were determined by MIC assay as described previously. For the salt sensitivity assay, peptides were diluted in deionized water containing different salts, and mixed with E. coli ATCC25922 (10^5 CFU/mL). The final physiological concentrations of different salts were as follows: 150 mM NaCl, 4.5 mM KCl, 6 μM NH4Cl, 1 mM MgCl2, 8 μM ZnCl2, and 4 μM FeCl3. For temperature sensitivity, peptides were cooled on ice for 10 min, and incubated at 37 °C and 100 °C for 30 min. For pH sensitivity, peptides were treated with different pH for 1 h. Briefly, peptides were diluted in deionized water, and the pH of the solution was adjusted to 4.0, 6.0, 8.0, and 10.0 with HCl or NaOH. The subsequent steps were the same as for the MIC measurements. These tests were performed three times.

Compound	cell survival rate (RAW 264.7 cells)	cell survival rate (HEK293T cells)	MIC [1]	MIC [2]	GM (geometric mean of MICs), Gram (−) (Gram-negative bacteria)	MIC (S. aureus ATCC29213)	MIC (E. coli K88)	MIC [3]	MIC [4]	MIC [5]	MIC [6]	MIC [7]	GM (geometric mean of MICs), Gram (+) (Gram-positive bacteria)	MIC after pH treatment, pH 4 (E. coli ATCC25922)	MIC after pH treatment, pH 6 (E. coli ATCC25922)	MIC after pH treatment, pH 8 (E. coli ATCC25922)	MIC after pH treatment, pH 10 (E. coli ATCC25922)	MIC after temperature treatment, 0 °C (E. coli ATCC25922)	MIC after temperature treatment, 37 °C (E. coli ATCC25922)	MIC after temperature treatment, 100 °C (E. coli ATCC25922)	further results
N=C(N)NCCC[C@H](NC(=O)CNC(=O)[C@H]1CCCN1C(=O)[C@H](CCCNC(=N)N)NC(=O)[C@H](CCCNC(=N)N)NC(=O)[C@H](Cc1ccccc1)NC(=O)[C@H](Cc1ccccc1)NC(=O)[C@H](CCCNC(=N)N)NC(=O)[C@H](Cc1ccccc1)NC(=O)[C@@H](N)Cc1ccccc1)C(=O)N[C@@H](CCCNC(=N)N)C(=O)N[C@@H](Cc1ccccc1)C(=O)N[C@@H](Cc1ccccc1)C(=O)N[C@@H](CCCNC(=N)N)C(=O)N[C@@H](Cc1ccccc1)C(=O)N[C@@H](Cc1ccccc1)C(N)=O [FRpG] (H-FFRFFRR[dP]GRRFFRFF-NH2)	78%	85%	8 µM (≈ 18.3 µg/mL)	16 µM (≈ 36.6 µg/mL)	13.9 µM	16 µM (≈ 36.6 µg/mL)	8 µM (≈ 18.3 µg/mL)	16 µM (≈ 36.6 µg/mL)	32 µM (≈ 73.1 µg/mL)	32 µM (≈ 73.1 µg/mL)	16 µM (≈ 36.6 µg/mL)	32 µM (≈ 73.1 µg/mL)	22.6 µM	16 µM	8 µM	8 µM	32 µM	8 µM (≈ 18.3 µg/mL)	8 µM (≈ 18.3 µg/mL)	8 µM (≈ 18.3 µg/mL)	MIC in the presence of FeCl3 (E. coli ATCC25922): 8 µM; MIC in the presence of KCl (E. coli ATCC25922): 8 µM; MIC in the presence of MgCl2 (E. coli ATCC25922): 8 µM; MIC in the presence of NH4Cl (E. coli ATCC25922): 8 µM; MIC in the presence of NaCl (E. coli ATCC25922): 32 µM; MIC in the presence of ZnCl2 (E. coli ATCC25922): 8 µM; MIC, Control (E. coli ATCC25922): 8 µM (≈ 18.3 µg/mL); MIC, Control (pH 7) (E. coli ATCC25922): 8 µM
CC[C@H](C)[C@H](N)C(=O)N[C@H](C(=O)N[C@@H](CCCNC(=N)N)C(=O)N[C@H](C(=O)N[C@H](C(=O)N[C@@H](CCCNC(=N)N)C(=O)N[C@@H](CCCNC(=N)N)C(=O)N1CCC[C@@H]1C(=O)NCC(=O)N[C@@H](CCCNC(=N)N)C(=O)N[C@@H](CCCNC(=N)N)C(=O)N[C@H](C(=O)N[C@H](C(=O)N[C@@H](CCCNC(=N)N)C(=O)N[C@H](C(=O)N[C@H](C(N)=O)[C@@H](C)CC)[C@@H](C)CC)[C@@H](C)CC)[C@@H](C)CC)[C@@H](C)CC)[C@@H](C)CC)[C@@H](C)CC [IRpG] (H-IIRIIRR[dP]GRRIIRII-NH2)	98%	98%	4 µM (≈ 8.05 µg/mL)	32 µM (≈ 64.4 µg/mL)	16 µM	>128 µM	16 µM (≈ 32.2 µg/mL)	16 µM (≈ 32.2 µg/mL)	32 µM (≈ 64.4 µg/mL)	>128 µM	>128 µM	>128 µM	256 µM	16 µM	4 µM	8 µM	16 µM	4 µM (≈ 8.05 µg/mL)	4 µM (≈ 8.05 µg/mL)	4 µM (≈ 8.05 µg/mL)	MIC in the presence of FeCl3 (E. coli ATCC25922): 4 µM; MIC in the presence of KCl (E. coli ATCC25922): 4 µM; MIC in the presence of MgCl2 (E. coli ATCC25922): 8 µM; MIC in the presence of NH4Cl (E. coli ATCC25922): 4 µM; MIC in the presence of NaCl (E. coli ATCC25922): 32 µM; MIC in the presence of ZnCl2 (E. coli ATCC25922): 4 µM; MIC, Control (E. coli ATCC25922): 4 µM (≈ 8.05 µg/mL); MIC, Control (pH 7) (E. coli ATCC25922): 4 µM
CC(C)C[C@H](NC(=O)CN)C(=O)N[C@@H](CCCNC(=N)N)C(=O)N[C@@H](CC(C)C)C(=O)N[C@@H](CC(C)C)C(=O)N[C@@H](CCCNC(=N)N)C(=O)N[C@@H](CCCNC(=N)N)C(=O)N[C@@H](CC(C)C)C(=O)N[C@@H](CC(C)C)C(=O)N[C@@H](CCCNC(=N)N)C(=O)N[C@@H](CCCNC(=N)N)C(=O)N[C@@H](CC(C)C)C(=O)N[C@@H](CC(C)C)C(=O)N[C@@H](CCCNC(=N)N)C(=O)N[C@@H](CC(C)C)C(=O)N1CCC[C@@H]1C(N)=O [LRα] (H-GLRLLRRLLRRLLRL[dP]-NH2)	less than 10%	less than 10%	2 µM (≈ 4.03 µg/mL)	4 µM (≈ 8.05 µg/mL)	3 µM	8 µM (≈ 16.1 µg/mL)	4 µM (≈ 8.05 µg/mL)	2 µM (≈ 4.03 µg/mL)	4 µM (≈ 8.05 µg/mL)	8 µM (≈ 16.1 µg/mL)	4 µM (≈ 8.05 µg/mL)	16 µM (≈ 32.2 µg/mL)	8 µM	2 µM	2 µM	2 µM	4 µM	2 µM (≈ 4.03 µg/mL)	2 µM (≈ 4.03 µg/mL)	2 µM (≈ 4.03 µg/mL)	MIC in the presence of FeCl3 (E. coli ATCC25922): 2 µM; MIC in the presence of KCl (E. coli ATCC25922): 2 µM; MIC in the presence of MgCl2 (E. coli ATCC25922): 2 µM; MIC in the presence of NH4Cl (E. coli ATCC25922): 2 µM; MIC in the presence of NaCl (E. coli ATCC25922): 8 µM; MIC in the presence of ZnCl2 (E. coli ATCC25922): 2 µM; MIC, Control (E. coli ATCC25922): 2 µM (≈ 4.03 µg/mL); MIC, Control (pH 7) (E. coli ATCC25922): 2 µM
CO/N=C(\C(=O)N[C@@H]1C(=O)N2C(C(=O)O)=C(COC(C)=O)CS[C@H]12)c1csc(N)n1 [cefotaxime, reference compound]																					MIC ([1]; Escherichia coli): 2 µM (≈ 0.911 µg/mL)
O=C(N[C@H](CO)[C@H](O)c1ccc([N+](=O)[O-])cc1)C(Cl)Cl [chloramphenicol, reference compound]																					MIC ([1]; Escherichia coli): 8 µM (≈ 2.59 µg/mL)
O=C(O)c1cn(C2CC2)c2cc(N3CCNCC3)c(F)cc2c1=O [ciprofloxacin, reference compound]																					MIC ([1]; Escherichia coli): 8 µM (≈ 2.65 µg/mL)
[H]/N=C(/N)N[C@H]1[C@H](O)[C@@H](O)[C@H](O[C@@H]2O[C@@H](C)[C@](O)(C=O)[C@H]2O[C@@H]2O[C@@H](CO)[C@H](O)[C@@H](O)[C@@H]2NC)[C@@H](N/C(N)=N\[H])[C@@H]1O [streptomycin, reference compound]																					MIC ([1]; Escherichia coli): 2 µM (≈ 1.16 µg/mL)
FFRFFRRGGRRFFRFF-NH2 [FRGG]	66%	76%	8 µM	16 µM	16 µM	16 µM	16 µM	16 µM	32 µM	32 µM	32 µM	32 µM	26.9 µM	32 µM	8 µM	8 µM	32 µM	8 µM	8 µM	8 µM	MIC in the presence of FeCl3 (E. coli ATCC25922): 8 µM; MIC in the presence of KCl (E. coli ATCC25922): 8 µM; MIC in the presence of MgCl2 (E. coli ATCC25922): 16 µM; MIC in the presence of NH4Cl (E. coli ATCC25922): 8 µM; MIC in the presence of NaCl (E. coli ATCC25922): 64 µM; MIC in the presence of ZnCl2 (E. coli ATCC25922): 16 µM; MIC, Control (E. coli ATCC25922): 8 µM; MIC, Control (pH 7) (E. coli ATCC25922): 8 µM
IIRIIRRGGRRIIRII-NH2 [IRGG]	95%	96%	8 µM	32 µM	21.1 µM	>128 µM	16 µM	32 µM	32 µM	>128 µM	>128 µM	>128 µM	256 µM	16 µM	8 µM	8 µM	16 µM	8 µM	8 µM	8 µM	MIC in the presence of FeCl3 (E. coli ATCC25922): 8 µM; MIC in the presence of KCl (E. coli ATCC25922): 8 µM; MIC in the presence of MgCl2 (E. coli ATCC25922): 16 µM; MIC in the presence of NH4Cl (E. coli ATCC25922): 8 µM; MIC in the presence of NaCl (E. coli ATCC25922): 64 µM; MIC in the presence of ZnCl2 (E. coli ATCC25922): 16 µM; MIC, Control (E. coli ATCC25922): 8 µM; MIC, Control (pH 7) (E. coli ATCC25922): 8 µM
